Values joined by “and” are separate entries in the source; they are usually repeats but may differ in a detail not shown here. Equal values may be shown once. Read-outs that look alike come from different tables or passages of the source. Blank lines part the entries; values can stand above or below the compound they belong to.
Legend:
h-cGAS = h-cGAS (Homo sapiens, UniProt Q8N884); experiment: RapidFire mass spectrometry (RF-MS) cGAS activity assay, h-cGAS; settings: for IC50: RF-MS; for fold improvement of h-cGAS IC50: relative to the parent compound
[1] = Solubility in cell culture media; type: physicochemical
m-cGAS = m-cGAS (Mus musculus, UniProt Q8C6L5); experiment: RapidFire mass spectrometry (RF-MS) cGAS activity assay, m-cGAS; settings: for IC50: RF-MS
cGAS in THP1 cells = experiment: dsDNA-stimulated mRNA induction (qRT-PCR) in THP1 cells; type: cell-based, human; settings: for IC50: Homo sapiens, THP-1, qRT-PCR
cGAS in RAW-Lucia cells = experiment: Lucia luciferase reporter assay in dsDNA-stimulated RAW-Lucia cells; settings: read-out: cell-based IC50 in mouse RAW 264.7 cells
[2] = tested on: RIG-I pathway in THP1 cells; experiment: hpRNA-stimulated IFNB1 mRNA induction in THP1 cells (specificity); type: cell-based, human; settings: THP1, 10 µM inhibitor
[3] = biological target: T1, soluble adenylyl cyclase (ADCY10), human sACt protein (Homo sapiens, UniProt Q96PN6); experiment: Soluble adenylyl cyclase (sAC) inhibition assay; type: biochemical; settings: for IC50: RF-MS readout
T1 construct: were added with 5 µl of human sACt protein
T1 sequence (Q96PN6 1-469 limits assumed): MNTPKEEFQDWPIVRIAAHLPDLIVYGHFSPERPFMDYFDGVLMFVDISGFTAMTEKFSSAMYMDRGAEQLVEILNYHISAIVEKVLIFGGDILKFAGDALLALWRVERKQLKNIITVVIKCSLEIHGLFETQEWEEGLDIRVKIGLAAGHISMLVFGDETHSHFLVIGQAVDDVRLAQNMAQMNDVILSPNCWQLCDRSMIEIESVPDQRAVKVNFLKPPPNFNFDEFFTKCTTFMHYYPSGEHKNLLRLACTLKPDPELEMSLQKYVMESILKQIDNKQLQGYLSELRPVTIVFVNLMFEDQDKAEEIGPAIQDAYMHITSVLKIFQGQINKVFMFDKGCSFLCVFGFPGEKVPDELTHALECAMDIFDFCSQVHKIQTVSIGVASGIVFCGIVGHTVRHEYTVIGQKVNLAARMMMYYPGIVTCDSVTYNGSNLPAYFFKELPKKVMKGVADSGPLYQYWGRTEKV

h-cGAS(Y248F) = experiment: RF-MS assay with mutant h-cGAS(Y248F); type: biochemical, human; settings: relative to native h-cGAS
THP1 cells = experiment: CellTiter-Glo cytotoxicity assay, THP1; type: cell-based; settings: 24 h
[4] = tested on: cGAS in primary human macrophages; experiment: dsDNA-stimulated mRNA induction (qRT-PCR) in primary human macrophages; type: cell-based; settings: Macrophage
[5] = tested on: NF-κB pathway reporter in THP1-Dual cells; experiment: SEAP NF-κB reporter assay in dsDNA-stimulated THP1-Dual cells; type: cell-based; settings: Homo sapiens
[6] = tested on: STING pathway in THP1 cells; experiment: cGAMP-stimulated IFNB1 mRNA induction in THP1 cells (specificity); type: cell-based, human
human THP1 cells = tested on: human THP1 cells; parameters: method as in PMID 25821216; settings: cited from earlier work
cGAS in RAW 264.7 cells = experiment: dsDNA-stimulated IFNB1 mRNA induction (qRT-PCR) in RAW 264.7 cells; type: cell-based; settings: Mus musculus, RAW264.7
45-bp dsDNA = experiment: dsDNA intercalation fluorescence polarization assay (acridine orange); type: binding
[7] = tested on: STING pathway in RAW 264.7 cells; experiment: cGAMP-stimulated IFNB1 mRNA induction in RAW 264.7 cells (specificity); type: cell-based, mouse; settings: RAW 264.7, 10 µM J014
[8] = read-out: IC50 CXCL10 mRNA, THP1
[9] = read-out: IC50 IFNB1 mRNA, THP1
[10] = read-out: IC50 CXCL10 mRNA, primary human macrophages
[11] = read-out: IC50 IFNB1 mRNA, primary human macrophages

Sequence of m-cGAS (Q8C6L5 whole entry): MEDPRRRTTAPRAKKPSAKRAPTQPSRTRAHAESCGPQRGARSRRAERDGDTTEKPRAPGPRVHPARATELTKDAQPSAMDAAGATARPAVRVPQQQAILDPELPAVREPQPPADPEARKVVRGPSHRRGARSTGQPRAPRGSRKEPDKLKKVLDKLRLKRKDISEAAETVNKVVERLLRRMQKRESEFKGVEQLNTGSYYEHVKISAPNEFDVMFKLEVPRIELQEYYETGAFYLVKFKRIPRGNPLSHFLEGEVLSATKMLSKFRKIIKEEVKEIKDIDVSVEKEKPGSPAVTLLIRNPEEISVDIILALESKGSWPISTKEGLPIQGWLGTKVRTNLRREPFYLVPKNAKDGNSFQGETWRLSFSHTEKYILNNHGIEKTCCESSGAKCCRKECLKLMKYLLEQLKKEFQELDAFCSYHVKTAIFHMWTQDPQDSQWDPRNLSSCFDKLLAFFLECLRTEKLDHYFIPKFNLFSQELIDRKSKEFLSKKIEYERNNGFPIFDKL
Sequence of h-cGAS (Q8N884 whole entry): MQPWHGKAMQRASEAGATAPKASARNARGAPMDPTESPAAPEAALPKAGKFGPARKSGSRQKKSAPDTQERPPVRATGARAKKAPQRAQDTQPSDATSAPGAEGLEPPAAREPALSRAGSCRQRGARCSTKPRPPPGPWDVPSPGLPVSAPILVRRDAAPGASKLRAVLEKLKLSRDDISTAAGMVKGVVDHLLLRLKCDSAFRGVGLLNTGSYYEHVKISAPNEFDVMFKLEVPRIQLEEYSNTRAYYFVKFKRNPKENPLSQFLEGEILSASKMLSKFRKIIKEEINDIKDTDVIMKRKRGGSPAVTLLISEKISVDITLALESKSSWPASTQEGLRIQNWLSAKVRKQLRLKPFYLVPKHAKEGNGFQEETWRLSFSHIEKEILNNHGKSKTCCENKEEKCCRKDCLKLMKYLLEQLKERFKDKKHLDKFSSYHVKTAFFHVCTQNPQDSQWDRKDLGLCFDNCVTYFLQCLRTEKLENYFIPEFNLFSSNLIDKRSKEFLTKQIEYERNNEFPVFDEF

IC50 (h-cGAS; read-out: IC50 h-cGAS): > 39 nM | fold improvement of h-cGAS IC50 (h-cGAS): 2 fold | solubility in cell culture media (in words) [1]: limited solubility | IC50 (m-cGAS; read-out: IC50 m-cGAS): < 24 nM
SMILES: COc1cc(Cl)c(Cl)c2[nH]c3c(c12)CN(C(=O)CO)CC3 [G098]

IC50 (h-cGAS; read-out: IC50 h-cGAS): > 39 nM | IC50 (m-cGAS; read-out: IC50 m-cGAS): < 24 nM | IC50 (cGAS in RAW-Lucia cells; Lucia luciferase per Suppl. Fig. 11a,b): 1090 nM
SMILES: Cn1c2c(c3ccc(Cl)c(F)c31)CN(C(=O)CO)CC2 [G097]
inhibition of IFNB1 mRNA induction in human THP1 cells (in words) (cGAS in THP1 cells): no inhibition

SMILES: O=C(CO)N1CCc2[nH]c3c(Cl)c(Cl)cc(-c4cn[nH]c4)c3c2C1 [G108]
inhibition at 10 µM ([2]; Homo sapiens, THP-1): 20 to 40% | off-target inhibition of hpRNA-stimulated RIG-I pathway (in words) [2]: weak off-target inhibition | IC50 [3]: 26400 nM | fold reduction of drug inhibition with h-cGAS(Y248F) (h-cGAS(Y248F)): 250 fold | IC50 (cGAS in THP1 cells; [8]): 3560 nM | IC50 (cGAS in THP1 cells; [9]): 2950 nM | IC50 (h-cGAS; IC50 h-cGAS): 27.5 nM | IC50 (h-cGAS; IC50 h-cGAS, in-house synthesized compounds): 28 nM | fold improvement of h-cGAS IC50 (h-cGAS): 4 fold | IC50 (m-cGAS; IC50 m-cGAS, in-house synthesized compounds): 5150 nM and ≥ 5000 nM | fold reduction of m-cGAS potency (m-cGAS; relative to G022): 300 fold | LD50, THP1 cells (THP1 cells): 56.7 µM | IC50 [4, 10]: 590 nM | IC50 [4, 11]: 1530 nM | IC50 [5]: 2270 nM | inhibition at 10 µM ([6]; Homo sapiens, THP-1, THP1, 10 µM inhibitor): 20 to 40% | off-target inhibition of cGAMP-stimulated STING pathway (in words) ([6]; THP1, 10 µM inhibitor): weak off-target inhibition

SMILES: CCN(CC)CCCC(C)Nc1c2ccc(Cl)cc2nc2ccc(OC)cc12 (centres unmarked) [quinacrine]
IC50 (human THP1 cells): 3700 nM

IC50 (cGAS in RAW 264.7 cells): 3580 nM | IC50 (cGAS in THP1 cells; [9]): 2630 nM | IC50 (h-cGAS; IC50 h-cGAS): 100 nM | fold improvement of h-cGAS IC50 (h-cGAS): 10 fold | IC50 (m-cGAS; IC50 m-cGAS): 60 nM | fold improvement of m-cGAS IC50 (m-cGAS; relative to the parent compound): 10 fold
SMILES: O=C(Nc1cc(-c2ccccc2)ccn1)c1[nH]ncc1[N+](=O)[O-] [J014]
% Intercalation at 30 µM (45-bp dsDNA; 30 µM): -22.38% | Polarization (45-bp dsDNA; compound at 30 µM): 277 mP | inhibition with cGAMP instead of dsDNA as activating ligand (in words) [7]: same level of inhibition | LD50, THP1 cells (THP1 cells): 28.9 µM | inhibition with cGAMP instead of dsDNA as activating ligand (in words) ([6]; THP1, 5 µM J014): same level of inhibition

IC50 (m-cGAS; IC50 m-cGAS): < 24 nM | IC50 (cGAS in RAW-Lucia cells; Mus musculus, RAW264.7, Lucia luciferase per Suppl. Fig. 11a,b): 3320 nM
SMILES: O=C(CO)N1CCc2[nH]c3c(Cl)c(Cl)ccc3c2C1 [G022, 1-(6,7-dichloro-1,3,4,5-tetrahydro-2H-pyrido[4,3-b]indol-2-yl)-2-hydroxyethan-1-one]
inhibition of IFNB1 mRNA induction in human THP1 cells (in words) (cGAS in THP1 cells): no inhibition

inhibition of adenylyl cyclase (in words) [3]: no inhibition | IC50 [3]: > 50000 nM | IC50 (cGAS in THP1 cells; [8]): 1950 nM | IC50 (cGAS in THP1 cells; [9]): 1700 nM | IC50 (h-cGAS; IC50 h-cGAS): 14 nM | fold improvement of h-cGAS IC50 (h-cGAS): 2 fold | IC50 (m-cGAS; IC50 m-cGAS): 442 nM | IC50 [4, 10]: 490 nM | IC50 [4, 11]: 860 nM | IC50 [5]: 1360 nM
SMILES: Cn1ccc(-c2cc(Cl)c(Cl)c3[nH]c4c(c23)CN(C(=O)CO)CC4)n1 [G140]
off-target inhibition of hpRNA-stimulated RIG-I pathway (in words) [2]: complete absence of off-target effect | LD50, THP1 cells (THP1 cells): > 100 µM | off-target inhibition of cGAMP-stimulated STING pathway (in words) ([6]; THP1, 10 µM inhibitor): complete absence of off-target effect

Source: PMC6529454, “Development of human cGAS-specific small-molecule inhibitors for repression of dsDNA-triggered interferon expression” (Nature Communications, 2019)
